Assay results published in ChEMBL document CHEMBL4334496, “Identification of a Unique Resorcylic Acid Lactone Derivative That Targets Both Lymphangiogenesis and Angiogenesis” (J Med Chem, 2019).
pIC50: −log10 of the molar value. Active and inactive are the calls of the source. No cut-off for these calls is given here.

Legend:
in vitro = conditions: mouse, BA/F3 cells
Description: Growth inhibition of mouse BA/F3 cells assessed as inhibition of cell growth incubated for 72 hrs by Cell-titer-Glo assay

[1] = target: Receptor-type tyrosine-protein kinase FLT3 (Homo sapiens) (UniProt P36888)
Description: Inhibition of TEL-fused FLT3 (unknown origin) expressed in mouse BA/F3 cells assessed as inhibition of cell growth incubated for 72 hrs by Cell-titer-Glo assay

[2] = target: T1, Vascular endothelial growth factor receptor 2 (Homo sapiens, UniProt P35968)
T1 sequence (P35968 whole entry): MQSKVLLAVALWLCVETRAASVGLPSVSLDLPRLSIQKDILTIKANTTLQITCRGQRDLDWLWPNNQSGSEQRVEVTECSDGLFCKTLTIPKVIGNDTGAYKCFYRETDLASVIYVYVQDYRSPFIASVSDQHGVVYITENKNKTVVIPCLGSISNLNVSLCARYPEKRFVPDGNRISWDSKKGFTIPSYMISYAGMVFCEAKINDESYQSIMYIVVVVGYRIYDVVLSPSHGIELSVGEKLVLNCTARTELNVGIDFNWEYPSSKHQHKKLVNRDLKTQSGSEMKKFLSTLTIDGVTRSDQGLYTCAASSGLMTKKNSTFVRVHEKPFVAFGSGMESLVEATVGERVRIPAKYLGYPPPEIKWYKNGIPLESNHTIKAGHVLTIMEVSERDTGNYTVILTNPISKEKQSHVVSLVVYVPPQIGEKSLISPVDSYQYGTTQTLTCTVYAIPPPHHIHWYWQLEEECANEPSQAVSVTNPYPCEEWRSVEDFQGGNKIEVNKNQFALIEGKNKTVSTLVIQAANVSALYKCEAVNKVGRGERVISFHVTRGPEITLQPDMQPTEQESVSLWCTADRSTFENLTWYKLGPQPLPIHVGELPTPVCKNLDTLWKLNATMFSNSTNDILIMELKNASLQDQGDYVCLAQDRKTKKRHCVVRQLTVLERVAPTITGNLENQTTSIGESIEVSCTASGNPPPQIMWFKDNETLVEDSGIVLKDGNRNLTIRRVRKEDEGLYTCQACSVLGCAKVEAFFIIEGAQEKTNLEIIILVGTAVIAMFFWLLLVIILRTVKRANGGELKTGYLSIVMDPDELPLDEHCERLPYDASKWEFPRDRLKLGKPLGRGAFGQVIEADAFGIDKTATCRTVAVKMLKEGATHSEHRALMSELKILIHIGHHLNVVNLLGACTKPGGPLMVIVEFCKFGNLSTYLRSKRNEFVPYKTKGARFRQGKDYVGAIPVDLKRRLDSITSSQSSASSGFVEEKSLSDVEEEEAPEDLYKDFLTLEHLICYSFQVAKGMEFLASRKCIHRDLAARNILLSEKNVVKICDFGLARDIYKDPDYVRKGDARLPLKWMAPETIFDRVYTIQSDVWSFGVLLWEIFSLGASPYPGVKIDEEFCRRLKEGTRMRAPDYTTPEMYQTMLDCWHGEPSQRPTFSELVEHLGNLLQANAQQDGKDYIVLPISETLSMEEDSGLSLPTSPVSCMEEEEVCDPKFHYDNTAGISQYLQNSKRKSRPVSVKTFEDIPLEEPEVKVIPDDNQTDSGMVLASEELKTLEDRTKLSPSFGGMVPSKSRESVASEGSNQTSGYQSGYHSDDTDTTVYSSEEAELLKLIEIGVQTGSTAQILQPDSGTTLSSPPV
Description: Inhibition of TEL-fused VEGFR2 (unknown origin) expressed in mouse BA/F3 cells assessed as inhibition of cell growth incubated for 72 hrs by Cell-titer-Glo assay

[3] = target: T2, Vascular endothelial growth factor receptor 3 (Homo sapiens, UniProt P35916)
T2 sequence (P35916 whole entry): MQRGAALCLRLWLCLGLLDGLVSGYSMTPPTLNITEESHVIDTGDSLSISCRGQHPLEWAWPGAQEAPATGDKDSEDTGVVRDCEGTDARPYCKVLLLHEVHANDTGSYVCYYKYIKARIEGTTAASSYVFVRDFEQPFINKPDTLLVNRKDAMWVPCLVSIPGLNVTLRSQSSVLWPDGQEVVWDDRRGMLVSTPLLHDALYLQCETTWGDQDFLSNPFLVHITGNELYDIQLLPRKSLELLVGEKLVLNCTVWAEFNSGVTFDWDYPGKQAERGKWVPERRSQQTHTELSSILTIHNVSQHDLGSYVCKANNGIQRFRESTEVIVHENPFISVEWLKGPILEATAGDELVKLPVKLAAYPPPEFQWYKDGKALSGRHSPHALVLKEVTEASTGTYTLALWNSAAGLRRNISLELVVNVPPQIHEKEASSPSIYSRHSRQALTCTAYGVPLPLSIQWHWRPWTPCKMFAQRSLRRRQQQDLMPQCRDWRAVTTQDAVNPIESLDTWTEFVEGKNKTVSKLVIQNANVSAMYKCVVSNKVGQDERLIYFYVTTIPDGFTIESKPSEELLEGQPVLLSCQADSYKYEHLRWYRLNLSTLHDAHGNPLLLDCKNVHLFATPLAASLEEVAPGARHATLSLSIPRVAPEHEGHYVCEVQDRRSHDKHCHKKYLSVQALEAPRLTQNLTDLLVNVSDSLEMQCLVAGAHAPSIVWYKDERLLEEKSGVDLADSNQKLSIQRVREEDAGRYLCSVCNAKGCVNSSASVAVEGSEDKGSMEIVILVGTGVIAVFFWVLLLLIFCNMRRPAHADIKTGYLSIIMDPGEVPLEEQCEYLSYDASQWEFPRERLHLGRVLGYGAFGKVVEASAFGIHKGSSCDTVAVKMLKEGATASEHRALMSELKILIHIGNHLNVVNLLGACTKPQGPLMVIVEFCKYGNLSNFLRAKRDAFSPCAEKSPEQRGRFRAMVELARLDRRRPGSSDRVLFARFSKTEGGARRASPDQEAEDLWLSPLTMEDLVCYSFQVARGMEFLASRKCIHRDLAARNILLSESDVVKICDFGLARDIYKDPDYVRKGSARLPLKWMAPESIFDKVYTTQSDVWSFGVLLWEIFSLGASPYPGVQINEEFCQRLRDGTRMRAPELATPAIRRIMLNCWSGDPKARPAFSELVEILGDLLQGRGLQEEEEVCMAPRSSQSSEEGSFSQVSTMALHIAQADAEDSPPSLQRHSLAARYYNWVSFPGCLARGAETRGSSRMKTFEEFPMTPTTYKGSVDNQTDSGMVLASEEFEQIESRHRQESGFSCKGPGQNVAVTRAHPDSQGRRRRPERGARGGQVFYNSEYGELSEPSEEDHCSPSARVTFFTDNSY
Description: Inhibition of human VEGFR3 using poly[Glu:Tyr] (4:1) substrate and [gamma-33P]-ATP by radiometric biochemical kinase assay

[4] = target: T2, Vascular endothelial growth factor receptor 3; remark: listed apart in the source
Description: Inhibition of TEL-fused VEGFR3 (unknown origin) expressed in mouse BA/F3 cells assessed as inhibition of cell growth incubated for 72 hrs by Cell-titer-Glo assay

[5] = target: T1, Vascular endothelial growth factor receptor 2; remark: listed apart in the source
Description: Inhibition of human VEGFR2 using poly[Glu:Tyr] (4:1) substrate and [gamma-33P]-ATP by radiometric biochemical kinase assay

[6] = target: T3, Receptor-type tyrosine-protein kinase FLT3 (Homo sapiens, UniProt P36888)
T3 sequence (P36888 whole entry): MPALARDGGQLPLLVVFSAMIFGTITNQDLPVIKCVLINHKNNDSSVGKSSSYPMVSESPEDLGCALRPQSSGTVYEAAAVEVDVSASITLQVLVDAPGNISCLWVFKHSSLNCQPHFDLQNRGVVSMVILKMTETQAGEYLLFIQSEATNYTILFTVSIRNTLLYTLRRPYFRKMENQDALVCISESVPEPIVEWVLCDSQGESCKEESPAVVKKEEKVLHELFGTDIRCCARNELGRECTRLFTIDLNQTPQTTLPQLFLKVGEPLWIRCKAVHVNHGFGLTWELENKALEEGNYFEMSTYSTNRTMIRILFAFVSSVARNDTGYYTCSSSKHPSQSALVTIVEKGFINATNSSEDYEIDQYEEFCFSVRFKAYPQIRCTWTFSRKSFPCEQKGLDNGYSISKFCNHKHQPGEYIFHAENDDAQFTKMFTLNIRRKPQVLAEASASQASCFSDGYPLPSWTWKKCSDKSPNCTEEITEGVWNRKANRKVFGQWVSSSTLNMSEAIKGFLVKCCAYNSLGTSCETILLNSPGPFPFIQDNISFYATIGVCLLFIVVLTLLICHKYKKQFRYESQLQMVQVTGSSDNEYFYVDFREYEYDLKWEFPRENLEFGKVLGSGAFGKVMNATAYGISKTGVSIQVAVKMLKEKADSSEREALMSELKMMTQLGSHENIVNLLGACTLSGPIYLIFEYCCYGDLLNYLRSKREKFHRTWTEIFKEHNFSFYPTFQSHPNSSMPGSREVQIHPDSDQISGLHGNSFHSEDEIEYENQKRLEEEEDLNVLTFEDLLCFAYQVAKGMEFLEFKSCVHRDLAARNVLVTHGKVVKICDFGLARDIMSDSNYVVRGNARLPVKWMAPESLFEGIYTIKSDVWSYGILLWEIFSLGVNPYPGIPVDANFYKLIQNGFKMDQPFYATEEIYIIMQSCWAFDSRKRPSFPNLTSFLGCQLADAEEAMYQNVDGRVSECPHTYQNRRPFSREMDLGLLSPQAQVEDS

[7] = Toxicity in C57BL/6 mouse assessed as induction of clinically detectable corneal-epitheliopathy at 200 nM administered topically every 12 hrs for 7 days by immunohistochemical analysis; conditions: in vivo, topical_or_ocular, 0.2 µM
HUVEC [8] = assay: Anti-angiogenesis activity in truncated-FOSB transfected HUVEC cells model of pseudomyogenic-hemangioendothelioma assessed as inhibition of tube formation up to 5 uM; type: functional, cell-based; conditions: Homo sapiens
HUVEC [9] = assay: Anti-angiogenesis activity in HUVEC assessed as inhibition of VEGF-A-induced tube formation at 0.1 uM incubated for 6 hrs by tube formation assay; type: functional, cell-based; conditions: Homo sapiens
Homo sapiens [10] = organism: Homo sapiens; assay: Anti-lymphangiogenic activity in HDLEC assessed as reduction in growth factor cocktail-induced lymphatic sprouting at 10 uM incubated for 4 days by Hoechst 33342 and phalloidin staining based microfluidic platform assay relative to control; type: functional
HUVEC [11] = assay: Anti-angiogenesis activity in HUVEC assessed as inhibition of VEGF-A-induced cell migration at 0.1 uM incubated for 12 hrs by wound healing assay; type: functional, cell-based; conditions: Homo sapiens
Mus musculus [12] = assay: Anti-lymphangiogenic activity in C57BL/6 mouse assessed as suppression of suture-induced corneal lymphangiogenesis at 200 nM administered topically every 12 hrs for 7 days by immunohistochemical analysis; type: functional, organism-based
HUVEC [13] = assay: Anti-angiogenesis activity in truncated-FOSB transfected HUVEC cells model of pseudomyogenic-hemangioendothelioma assessed as inhibition of cell proliferation; type: functional, cell-based; conditions: Homo sapiens
MOLM-14 [14] = assay: Induction of apoptosis in human MOLM14 cells assessed as induction of caspase-3 cleavage at 0.1 to 1 uM incubated for 24 hrs by Western blot analysis; type: functional, cell-based
MOLM-14 [15] = assay: Induction of apoptosis in human MOLM14 cells assessed as induction of PARP cleavage at 0.1 to 1 uM incubated for 24 hrs by Western blot analysis; type: functional, cell-based
Mus musculus [16] = assay: Anti-angiogenesis activity in C57BL/6 mouse assessed as suppression of suture-induced corneal angiogenesis at 200 nM administered topically every 12 hrs for 7 days by immunohistochemical analysis; type: functional, organism-based
MV4-11 [17] = assay: Induction of apoptosis in human MV4-11 cells assessed as induction of PARP cleavage at 0.1 to 1 uM incubated for 24 hrs by Western blot analysis; type: functional, cell-based
MOLM-14 [18] = assay: Induction of apoptosis in human MOLM14 cells at 0.1 uM incubated for 24 hrs by propidium iodide and annexin-V staining based flow cytometry; type: functional, cell-based
[19] = target: c-Kit (Mast/stem cell growth factor receptor Kit) (Homo sapiens, UniProt P10721); assay: Inhibition of human c-Kit assessed as enzyme residual activity at 10 uM using poly[Glu:Tyr] (4:1) substrate and [gamma-33P]-ATP by radiometric biochemical kinase assay relative to control; conditions: probe poly[Glu:Tyr] (4:1), read-out: Activity
c-Kit (Mast/stem cell growth factor receptor Kit), sequence (P10721 whole entry): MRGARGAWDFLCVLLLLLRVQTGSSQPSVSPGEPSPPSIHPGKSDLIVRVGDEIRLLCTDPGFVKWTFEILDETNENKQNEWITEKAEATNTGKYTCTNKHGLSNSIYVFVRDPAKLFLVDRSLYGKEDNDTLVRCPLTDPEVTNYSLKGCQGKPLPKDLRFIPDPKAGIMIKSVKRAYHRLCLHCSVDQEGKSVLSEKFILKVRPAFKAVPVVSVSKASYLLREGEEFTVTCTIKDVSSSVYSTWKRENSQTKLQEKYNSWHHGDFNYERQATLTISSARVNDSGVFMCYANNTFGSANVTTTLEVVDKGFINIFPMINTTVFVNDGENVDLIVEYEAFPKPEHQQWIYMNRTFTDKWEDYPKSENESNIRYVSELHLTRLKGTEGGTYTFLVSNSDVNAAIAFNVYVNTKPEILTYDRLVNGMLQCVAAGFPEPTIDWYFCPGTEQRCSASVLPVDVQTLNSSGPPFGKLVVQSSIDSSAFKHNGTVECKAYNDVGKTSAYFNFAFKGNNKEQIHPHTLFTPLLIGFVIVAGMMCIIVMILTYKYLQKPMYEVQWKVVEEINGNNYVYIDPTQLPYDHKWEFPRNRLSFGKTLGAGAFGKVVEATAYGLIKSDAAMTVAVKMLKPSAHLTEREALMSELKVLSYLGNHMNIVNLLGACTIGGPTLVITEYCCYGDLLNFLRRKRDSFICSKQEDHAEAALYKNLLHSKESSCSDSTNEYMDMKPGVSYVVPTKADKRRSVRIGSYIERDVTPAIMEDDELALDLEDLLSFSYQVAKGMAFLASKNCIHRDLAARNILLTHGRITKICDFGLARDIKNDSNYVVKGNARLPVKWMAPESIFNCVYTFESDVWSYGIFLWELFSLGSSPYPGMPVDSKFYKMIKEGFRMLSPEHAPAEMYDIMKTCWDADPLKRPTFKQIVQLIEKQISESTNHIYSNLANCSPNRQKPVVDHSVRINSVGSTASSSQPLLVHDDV

MV4-11 [20] = assay: Induction of apoptosis in human MV4-11 cells at 0.1 uM incubated for 24 hrs by propidium iodide and annexin-V staining based flow cytometry; type: functional, cell-based
MV4-11 [21] = assay: Induction of apoptosis in human MV4-11 cells assessed as induction of caspase-3 cleavage at 0.1 to 1 uM incubated for 24 hrs by Western blot analysis; type: functional, cell-based
Homo sapiens [22] = organism: Homo sapiens; assay: Anti-lymphangiogenic activity in HDLEC assessed as reduction in human A375 cells-induced lymphatic sprouting at 1 to 10 uM incubated for 4 days by Hoechst 33342 and phalloidin staining based microfluidic platform assay relative to control; type: functional, cell-based
[23] = target: T4, Vascular endothelial growth factor receptor 1 (Homo sapiens, UniProt P17948); assay: Inhibition of human VEGFR1 assessed as enzyme residual activity at 10 uM using poly[Glu:Tyr] (4:1) substrate and [gamma-33P]-ATP by radiometric biochemical kinase assay relative to control
T4 sequence (P17948 whole entry): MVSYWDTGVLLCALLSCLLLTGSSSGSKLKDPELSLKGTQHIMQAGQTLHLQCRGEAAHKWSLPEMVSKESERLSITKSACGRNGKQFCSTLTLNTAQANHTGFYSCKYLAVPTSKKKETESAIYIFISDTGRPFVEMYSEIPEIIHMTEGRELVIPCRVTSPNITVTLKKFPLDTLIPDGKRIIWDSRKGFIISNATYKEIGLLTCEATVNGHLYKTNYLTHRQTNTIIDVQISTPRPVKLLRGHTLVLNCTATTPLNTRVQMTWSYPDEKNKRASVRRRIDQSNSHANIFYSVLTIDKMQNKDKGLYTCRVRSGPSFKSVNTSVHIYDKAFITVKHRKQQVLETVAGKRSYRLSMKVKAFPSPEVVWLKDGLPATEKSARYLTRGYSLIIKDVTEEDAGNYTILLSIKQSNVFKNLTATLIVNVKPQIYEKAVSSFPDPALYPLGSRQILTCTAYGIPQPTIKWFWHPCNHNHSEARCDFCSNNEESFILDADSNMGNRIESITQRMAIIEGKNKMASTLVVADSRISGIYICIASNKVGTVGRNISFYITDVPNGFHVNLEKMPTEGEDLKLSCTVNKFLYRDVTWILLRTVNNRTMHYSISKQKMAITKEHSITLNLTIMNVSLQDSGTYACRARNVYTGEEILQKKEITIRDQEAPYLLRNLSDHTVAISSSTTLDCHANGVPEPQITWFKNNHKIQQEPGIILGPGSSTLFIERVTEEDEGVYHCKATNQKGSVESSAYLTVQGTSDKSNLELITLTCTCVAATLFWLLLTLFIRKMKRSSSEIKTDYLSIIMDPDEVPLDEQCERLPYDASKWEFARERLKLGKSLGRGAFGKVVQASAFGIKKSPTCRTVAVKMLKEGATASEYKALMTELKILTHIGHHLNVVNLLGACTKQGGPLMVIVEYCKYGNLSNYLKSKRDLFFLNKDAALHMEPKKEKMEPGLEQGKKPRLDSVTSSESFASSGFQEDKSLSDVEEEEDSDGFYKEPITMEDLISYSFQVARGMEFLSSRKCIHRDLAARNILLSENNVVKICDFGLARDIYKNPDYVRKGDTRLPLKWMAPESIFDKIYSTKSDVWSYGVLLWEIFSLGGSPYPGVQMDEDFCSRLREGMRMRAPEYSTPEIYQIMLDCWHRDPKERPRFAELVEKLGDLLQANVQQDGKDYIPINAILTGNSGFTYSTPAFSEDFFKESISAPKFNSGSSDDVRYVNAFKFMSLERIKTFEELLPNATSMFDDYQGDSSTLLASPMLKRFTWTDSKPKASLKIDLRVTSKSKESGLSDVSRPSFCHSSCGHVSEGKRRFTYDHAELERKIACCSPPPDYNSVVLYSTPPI

[24] = target: T4, Vascular endothelial growth factor receptor 1; assay: Inhibition of human VEGFR1 using poly[Glu:Tyr] (4:1) substrate and [gamma-33P]-ATP by radiometric biochemical kinase assay
HUVEC [25] = assay: Anti-angiogenesis activity in truncated-FOSB transfected HUVEC cells model of pseudomyogenic-hemangioendothelioma assessed as inhibition of tube formation; type: functional, cell-based; conditions: Homo sapiens
Homo sapiens [26] = organism: Homo sapiens; assay: Anti-lymphangiogenic activity in HDLEC assessed as reduction in human MIAPaCa-2 cells-induced lymphatic sprouting at 1 to 10 uM incubated for 4 days by Hoechst 33342 and phalloidin staining based microfluidic platform assay relative to control; type: functional, cell-based
[27] = target: Mast/stem cell growth factor receptor Kit (Homo sapiens, UniProt P10721); assay: Inhibition of c-Kit phosphorylation in human TF1 cells assessed as at 0.1 to 0.3 uM incubated for 2 hrs by Western blot analysis; type: cell-based
Mast/stem cell growth factor receptor Kit, sequence (P10721 whole entry): as the sequence (P10721 whole entry) above

COc1cc(O)c2c(c1)-c1cccc(c1)[C@H](O)[C@H](O)C(=O)/C=C\C[C@H](C)OC2=O
GI50 at 72 h (in vitro): 12 µM

COc1cc(O)c2c(c1)-c1cccc(c1)[C@H](O)[C@@H](O)C(=O)/C=C\C[C@H](C)OC2=O
GI50 at 72 h (in vitro): 17 µM

COc1cc(O)c2c(c1)-c1cccc(c1)[C@H](O)[C@@H](O)C(=O)CCC[C@H](C)OC2=O
GI50 at 72 h (in vitro): > 25 µM

COc1cc(O)c2c(c1)CCC[C@H](O)[C@H](O)C(=O)/C=C\C[C@H](C)OC2=O
GI50 [1]: 0.27 µM | GI50 [2]: 0.14 µM | pIC50 [3]: 9.14 | GI50 [4]: 50 nM | pIC50 [5]: 8.54 | GI50 at 72 h (in vitro): 1.7 µM | pIC50 [6]: 8.74

COc1cc(O)c2c(c1)-c1cccc(c1)[C@@H](O)[C@H](O)[C@H](O)/C=C\C[C@H](C)OC2=O
GI50 at 72 h (in vitro): > 25 µM

COc1cc(O)c2c(c1)-c1cccc(c1)[C@H](O)[C@H](O)C(=O)CCC[C@H](C)OC2=O
GI50 at 72 h (in vitro): > 25 µM

COc1cc(O)c2c(c1)-c1cccc(c1)[C@@H](O)[C@H](O)C(=O)C/C=C/[C@H](C)OC2=O
GI50 at 72 h (in vitro): 11 µM

CCn1c(N)c(C(=O)NC)c(=O)c2ccc(C#C[C@@](C)(O)COC)nc21
Activity [7]: Non-Toxic | GI50 [1]: 18 µM | GI50 [2]: 4.6 µM | pIC50 [3]: 8.92 | Activity (HUVEC [8]): inactive | inhibition (HUVEC [9]): inactive | fold change (FC) (Homo sapiens [10]): 2 | GI50 [4]: 59 nM | pIC50 [5]: 7.17 | inhibition (HUVEC [11]): inactive | GI50 at 72 h (in vitro): > 25 µM | pIC50 [6]: 6.54 | Activity (Mus musculus [12]): Active

COc1cc(O)c2c(c1)-c1cccc(c1)[C@@H](O)[C@H](O)C(=O)CCC[C@H](C)OC2=O
GI50 at 72 h (in vitro): > 25 µM

COc1cc(O)c2c(c1)-c1cccc(c1)[C@@H](O)[C@H](O)[C@@H](N)/C=C\C[C@H](C)OC2=O
GI50 [1]: > 25 µM | GI50 [2]: > 25 µM | pIC50 [3]: < 5.00 | GI50 [4]: > 25000 nM | pIC50 [5]: < 5.00 | GI50 at 72 h (in vitro): > 25 µM

COc1cc(O)c2c(c1)-c1cccc(c1)CCC(=O)/C=C\C[C@H](C)OC2=O
GI50 at 72 h (in vitro): > 25 µM

C=C1/C=C\C[C@H](C)OC(=O)c2c(O)cc(OC)cc2-c2cccc(c2)[C@@H](O)[C@@H]1O
GI50 [2]: > 25 µM | pIC50 [3]: < 5.00 | GI50 [4]: > 25000 nM | pIC50 [5]: < 5.00 | GI50 at 72 h (in vitro): > 25 µM

COc1cc(O)c2c(c1)-c1cccc(c1)[C@@H](O)[C@H](O)C(=O)/C=C\C[C@H](C)OC2=O
Activity (HUVEC [13]): Dose-dependent effect | Activity [7]: Non-Toxic | Activity (MOLM-14 [14]): Active | Activity (MOLM-14 [15]): Active | Activity (Mus musculus [16]): Active | Activity (MV4-11 [17]): Active | Activity (MOLM-14 [18]): Active | activity at 10 µM [19]: 82.2% | Activity (MV4-11 [20]): Active | Activity (MV4-11 [21]): Active | Activity (Homo sapiens [22]): Active | Activity [23]: 36.6% | inhibition (HUVEC [9]): Active | inhibition (HUVEC [11]): Active | pIC50 [24]: 6.07 | Activity (HUVEC [25]): Dose-dependent effect | Activity (Homo sapiens [26]): Active | GI50 at 72 h (in vitro): 10 µM | inhibition (INH) [27]: Not Active | Activity (Mus musculus [12]): Active
